Measured values from article PMC10791743, “Selective CK1α degraders exert antiproliferative activity against a broad range of human cancer cell lines” (Nature Communications, 2024).
“And” between values parts separate entries of the source, which are not always exact repeats. Equal values may be shown once.

Key:
[1] = test system: panel of 9 human cancer cell lines (HD-MB03, MB004, MB002, MHH-CALL4, MOLM-13, TF-1, HEL, OCI-AML3, AML193); assay: Molecular glue library screening, CellTiter-Glo cell viability, 72 h; assay type: cell-based; conditions: CTG, dose-response
Method: We screened our molecular glue library (3630 compounds) against a panel of 9 pediatric cancer cell lines to identify molecules displaying cell-selective sensitivities. In addition to the four cell lines we previously described (MB002, MB004, HD-MB03, and MHHCALL-4)[27], we included five additional AML cell lines (MOLM-13, TF-1, HEL, OCI-AML3, and AML193) to cover a broader range of genetic diversity and cancer vulnerabilities. The library screening was performed in high throughput (384-well plates) by incubating the cells with compounds for 72 h and assessing cell viability via CellTiter-Glo (CTG) in a dose–response manner, as reported previously.
The primary screen was performed in 384-well format using the CellTiter Glo (CTG) luminescent cell viability assay (Promega) as previously described. 3630 compounds from the St. Jude proprietary molecular glue library were screened against 9 human cancer cell lines (HD-MB03, MB004, MB002, MHH-CALL4, MOLM-13, TF-1, HEL, OCI-AML3, AML193). Each cell line was cultured in the complete medium recommended by the vendor and seeded in Corning 8804 BC white 384-well assay plates at densities of 1000, 1000, 1500, 7500, 1250, 156, 625, 1250, 1250 cells per well for HD-MB03, MB004, MB002, MHH-CALL4, MOLM-13, TF-1, HEL, OCI-AML, AML193, respectively. After overnight incubation at 37 °C in a humidified 5% CO2 incubator, cells were treated with compounds in dose–response format using a Pintool on a Biomek FX^P Laboratory Automation Workstation (Beckman Coulter). After 72 h of incubation, cell proliferation was assessed using a CellTiter-Glo (CTG) luminescent cell viability assay (Promega) according to the manufacturer’s instructions. Luminescence signal was measured using an EnVision plate reader (PerkinElmer).

[2] = Pharmacokinetics in female CD1 mice; assay type: in vivo, mouse; conditions: female CD1 mice
Method: Three mice were housed in each cage. […] Temperature and humidity were recorded by an auto-controlled data logger system. All the animals were provided a laboratory rodent diet (Altromin, Germany). Reverse osmosis water treated with ultraviolet light was provided ad libitum. Total 27 mice (n = 9/group) were divided into three groups as Group 1, Group 2, and Group 3 with a sparse sampling design (3 mice/time points). […] The formulation vehicle for IV was 5% v/v NMP, 5% v/v Solutol HS-15 and 90% v/v Normal saline, and for PO & IP was 10%v/v NMP, 10%v/v Solutol HS-15. 50%v/v PEG-400 and 30%v/v HPβCD (20%w/v) in saline. […] Immediately after blood collection, plasma was harvested by centrifugation at 12,300×g, 10 min at 4 °C and samples were stored at −70 ± 10 °C until bioanalysis. Concentrations of SJ3149 in mouse plasma samples were determined by fit-for-purpose LC–MS/MS method. Non-Compartmental-Analysis tool of Phoenix WinNonlin® (Version 8.3) was used to assess the pharmacokinetic parameters. Peak plasma concentration (Cmax) and time for the peak plasma concentration (Tmax) were the observed values. The area under the concentration–time curve (AUClast) was calculated by the linear trapezoidal rule. The terminal elimination rate constant, ke was determined by regression analysis of the linear terminal portion of the log plasma concentration-time curve. Clearance was estimated as Dose/AUCinf and Vss as CL*MRT.

[3] = test system: MOLM-13 cells; assay: MOLM-13 cell viability assay (CTG, 72 h); assay type: cell-based, human; parameters: key to Cell viability in MOLM-13 cells / cell viability, dose-response replicate values: % viability = 100 − % activity, normalized to controls; conditions: for cell viability, dose-response replicate values: MOLM-13 WT, listed as CC-220
Method: The primary screen was performed in 384-well format using the CellTiter Glo (CTG) luminescent cell viability assay (Promega) as previously described. […] After overnight incubation at 37 °C in a humidified 5% CO2 incubator, cells were treated with compounds in dose–response format using a Pintool on a Biomek FX^P Laboratory Automation Workstation (Beckman Coulter). […] Luminescence signal was measured using an EnVision plate reader (PerkinElmer). […]
number per well and incubated overnight at 37 °C in a humidified 5 % CO2 incubator. Compounds were transferred to the assay plate from a dose-response plate using a Labcyte Echo 650 Acoustic Liquid Handler (Beckman Coulter , USA). […]
using Promega’s CellTiter-Glo reagent according to the manufacturer’s recommendation.
Luminescence was measured on the Envision plate reader (PerkinElmer, USA). Raw luminescence relative light unit (RLU) values for each compound at each concentration were normalized to obtain % activity using the following equation (1): 100 × [(mean(negctrl) – compound)/(mean (negctrl) – mean (posctrl))]. The % activity was converted to % viability using the following equation (2):
(100 – % activity), and then pooled from replicate experiments prior to fitting. Here, negctrl and posctrl refer to the negative (DMSO) and positive controls (staurosporine) on each plate. Dose-response curves were fit to the Hill equation using the GraphPad Prism (version 10). […]

[4] = single intraperitoneal 50 mg/kg, 0.5 hr
[5] = single intraperitoneal 50 mg/kg, 1 hr
[6] = single intraperitoneal 50 mg/kg, 2 hr
[7] = single intraperitoneal 50 mg/kg, 6 hr
[8] = single intraperitoneal 50 mg/kg, 8 hr
[9] = single intraperitoneal 50 mg/kg, 24 hr

## Cc1ccc(NC(=O)NCc2ccc3c(c2)CN(C2CCC(=O)NC2=O)C3=O)cc1Cl (stereo not shown) [CC-885]
[1]
  Cell viability across the panel of AL and MB cell lines: cytotoxic to all cell lines in the panel

## O=C1CCC(N2C(=O)c3ccc(NS(=O)(=O)c4ccccc4OC(F)(F)F)cc3C2=O)C(=O)N1 (stereo not shown) [SJ6986]
[1]
  Cell viability across the panel of AL and MB cell lines: cytotoxic to all cell lines in the panel

## O=C1CCC(N2Cc3cc(Nc4noc5ccccc45)ccc3C2=O)C(=O)N1 (stereo not shown) [SJ001043149]
[2]; [4]
  Plasma Concentration, Mean: 4253.68 ng/mL
  Plasma Concentration, individual animal: 2474.57 ng/mL and 2615.2 ng/mL and 7671.27 ng/mL
[2]; [5]
  Plasma Concentration, Mean: 3788.89 ng/mL
  Plasma Concentration, individual animal: 3408.76 ng/mL and 3558.82 ng/mL and 4399.09 ng/mL
[2]; [6]
  Plasma Concentration, Mean: 3436.75 ng/mL
  Plasma Concentration, individual animal: 3844.39 ng/mL and 3042 ng/mL and 3423.87 ng/mL
[2]; single intraperitoneal 50 mg/kg, 4 hr
  Plasma Concentration, individual animal: 37.79e ng/mL and 613.87 ng/mL and 1233.77 ng/mL
[2]; single intraperitoneal 50 mg/kg, 4 hr, average of two values
  Plasma Concentration, Mean: 22172 ng·h/mL
[2]; [7]
  Plasma Concentration, Mean: 336.83 ng/mL
  Plasma Concentration, individual animal: 224.92 ng/mL and 422.53 ng/mL and 363.03 ng/mL
[2]; [8]
  Plasma Concentration, Mean: 626.18 ng/mL
  Plasma Concentration, individual animal: 584.82 ng/mL and 376.02 ng/mL and 917.7 ng/mL
[2]; single intraperitoneal 50 mg/kg, 12 hr
  Plasma Concentration, individual animal: 1.02e ng/mL and 119 ng/mL and 188.95 ng/mL
[2]; single intraperitoneal 50 mg/kg, 12 hr, average of two values
  Plasma Concentration, Mean: 3695.5 ng·h/mL
[2]; [9]
  Plasma Concentration, Mean: 14.86 ng/mL
  Plasma Concentration, individual animal: 16.86 ng/mL and 11.98 ng/mL and 15.73 ng/mL
[2]; single intravenous 3 mg/kg, 0.08 hr
  Plasma Concentration, Mean: 3540.18 ng/mL
[2]; single intravenous 3 mg/kg, 0.08 hr, 3 mg/kg
  Plasma Concentration, individual animal: 3522.19 ng/mL and 3164.19 ng/mL and 3934.15 ng/mL
[2]; single intravenous 3 mg/kg, 0.5 hr
  Plasma Concentration, Mean: 548.51 ng/mL
[2]; single intravenous 3 mg/kg, 0.5 hr, 3 mg/kg
  Plasma Concentration, individual animal: 590.56 ng/mL and 721 ng/mL and 333.96 ng/mL
[2]; single intravenous 3 mg/kg, 1 hr, 3 mg/kg
  Plasma Concentration, individual animal: 89.11 ng/mL and 82.85 ng/mL and 465.12e ng/mL
[2]; single intravenous 3 mg/kg, 1 hr, average of two values
  Plasma Concentration, Mean: 2064 ng·h/mL
[2]; single intravenous 3 mg/kg, 2 hr
  Plasma Concentration, Mean: 21.37 ng/mL
[2]; single intravenous 3 mg/kg, 2 hr, 3 mg/kg
  Plasma Concentration, individual animal: 26.85 ng/mL and 22.73 ng/mL and 14.53 ng/mL
[2]; single intravenous 3 mg/kg, 4 hr
  Plasma Concentration, Mean: 5.15 ng/mL
[2]; single intravenous 3 mg/kg, 4 hr, 3 mg/kg
  Plasma Concentration, individual animal: 2.92 ng/mL and 9.75 ng/mL and 2.78 ng/mL
[2]; single intravenous 3 mg/kg, 8 hr, LLOQ 1.00 ng/mL, 3 mg/kg
  Plasma Concentration, individual animal: BLQ and 2.43e ng/mL
[2]; single intravenous 3 mg/kg, 12 hr, LLOQ 1.00 ng/mL
  Plasma Concentration, individual animal: BLQ
[2]; single intravenous 3 mg/kg, 24 hr, LLOQ 1.00 ng/mL
  Plasma Concentration, individual animal: BLQ
[2]; single oral 50 mg/kg, 0.5 hr
  Plasma Concentration, Mean: 1802.13 ng/mL
[2]; single oral 50 mg/kg, 0.5 hr, 50 mg/kg
  Plasma Concentration, individual animal: 1597.22 ng/mL and 2494.42 ng/mL and 1314.74 ng/mL
[2]; single oral 50 mg/kg, 1 hr
  Plasma Concentration, Mean: 635.82 ng/mL
[2]; single oral 50 mg/kg, 1 hr, 50 mg/kg
  Plasma Concentration, individual animal: 300.99 ng/mL and 799.29 ng/mL and 807.18 ng/mL
[2]; single oral 50 mg/kg, 2 hr, 50 mg/kg
  Plasma Concentration, individual animal: 207.45 ng/mL and 268.31 ng/mL and 77.73e ng/mL
[2]; single oral 50 mg/kg, 2 hr, average of two values
  Plasma Concentration, Mean: 5709.1 ng·h/mL
[2]; single oral 50 mg/kg, 4 hr
  Plasma Concentration, Mean: 35.43 ng/mL
[2]; single oral 50 mg/kg, 4 hr, 50 mg/kg
  Plasma Concentration, individual animal: 57.72 ng/mL and 27.57 ng/mL and 21 ng/mL
[2]; single oral 50 mg/kg, 6 hr, 50 mg/kg
  Plasma Concentration, individual animal: 5.43e ng/mL and 17.18 ng/mL and 23.01 ng/mL
[2]; single oral 50 mg/kg, 6 hr, average of two values
  Plasma Concentration, Mean: 482.4 ng·h/mL
[2]; single oral 50 mg/kg, 8 hr, 50 mg/kg
  Plasma Concentration, individual animal: 6.11 ng/mL and 16.97 ng/mL and 1.39e ng/mL
[2]; single oral 50 mg/kg, 8 hr, average of two values
  Plasma Concentration, Mean: 277 ng·h/mL
[2]; single oral 50 mg/kg, 12 hr
  Plasma Concentration, Mean: 3.98 ng/mL
[2]; single oral 50 mg/kg, 12 hr, 50 mg/kg
  Plasma Concentration, individual animal: 3.44 ng/mL and 4.89 ng/mL and 3.6 ng/mL
[2]; single oral 50 mg/kg, 24 hr, LLOQ 1.00 ng/mL, 50 mg/kg
  Plasma Concentration, individual animal: 2.03e ng/mL and BLQ

## O=C1CC[C@H](N2Cc3c(OCc4ccc(CN5CCOCC5)cc4)cccc3C2=O)C(=O)N1 [iberdomide, reference compound]
[3]; CTG 72 h
  Effect on MOLM-13 cell viability (cytotoxicity): very little effect
[3]; Concentration 0.00053416
  cell viability, dose-response replicate values: 104.205 and 101.273 and 105.756
[3]; Concentration 0.00160248
  cell viability, dose-response replicate values: 116.013 and 103.828 and 106.347
[3]; Concentration 0.00480744
  cell viability, dose-response replicate values: 99.9393 and 109.095 and 93.7856
[3]; Concentration 0.0144223
  cell viability, dose-response replicate values: 103.939 and 96.4969 and 110.266
[3]; Concentration 0.0432669
  cell viability, dose-response replicate values: 111.735 and 98.8709 and 109.735
[3]; Concentration 0.129801
  cell viability, dose-response replicate values: 112.307 and 99.7991 and 100.005
[3]; Concentration 0.389402
  cell viability, dose-response replicate values: 95.4783 and 95.9453 and 89.9456
[3]; Concentration 1.16821
  cell viability, dose-response replicate values: 93.0089 and 93.9287 and 92.6782
[3]; Concentration 3.50462
  cell viability, dose-response replicate values: 93.5137 and 89.0055 and 86.6893
[3]; Concentration 10.5139
  cell viability, dose-response replicate values: 95.8132 and 82.1796 and 91.7179

## Nc1cccc2c1C(=O)N(C1CCC(=O)NC1=O)C2=O (stereo not shown) [pomalidomide]
[1]
  Cell viability across the panel of AL and MB cell lines: inactive
